Assay [1] has as its system patient-derived GBM cell line 157. Kind of assay: Gliomasphere Cell Number Assay. The assay is classed as cell-based. To be noted: cell line 157, Primary, MGMT status −; 50% cell numbers vs DMSO control, Day 2 to Day 9; read-out: IC50 Cell Survival. As for the experimental part: (§1) Gliomasphere Cell Number Assay. Primary patient-derived GBM tumor samples were dissociated and plated under culture conditions that produce gliomaspheres (i.e. DMEM/F12 medium supplemented with B27, 20 ng/mL bFGF, 50 ng/mL EGF, penicillin/streptomycin, L-glutamine and 5 ug/mL heparin). Cells were plated at a density of 5000 cells/well and allowed to acclimate overnight at 37° C. The Dihydropyrazino-Pyrazine Compounds were added to the cultures on Day 2 and cells were kept in culture until Day 9. On Day 9, the cells were fixed with PFA/methanol and the next day assessed for cell number, using for example, SYTO-9 fluorescent DNA dye. Plates were read 48 h later with a laser scanning imager.

The subject of assay [2] is patient-derived GBM cell line 207. Put plainly: Gliomasphere Cell Number Assay. The assay is classed as cell-based. To be noted: cell line 207, Recurrent; 50% cell numbers vs DMSO control, Day 2 to Day 9; read-out: IC50 Cell Survival. As to the method: as §1
For assay [3], the system named is patient-derived GBM cell line 217. Kind of assay: Gliomasphere Cell Number Assay. The class given is cell-based. To be noted: cell line 217, Primary; 50% cell numbers vs DMSO control, Day 2 to Day 9; read-out: IC50 Cell Survival. As to the method:
as §1

The subject of assay [4] is patient-derived GBM cell line 229. Kind of assay: Gliomasphere Cell Number Assay. The class given is cell-based. To be noted: cell line 229, Recurrent; 50% cell numbers vs DMSO control, Day 2 to Day 9; read-out: IC50 Cell Survival. As for the experimental part:
as §1

For assay [5], the system named is patient-derived GBM cell line 248. Kind of assay: Gliomasphere Cell Number Assay. The class given is cell-based. To be noted: cell line 248, Recurrent, MGMT status Slightly elevated; 50% cell numbers vs DMSO control, Day 2 to Day 9; read-out: IC50 Cell Survival. As for the experimental part:
as §1

In assay [6] the test system is patient-derived GBM cell line 277. Put plainly: Gliomasphere Cell Number Assay. The class given is cell-based. To be noted: cell line 277, Secondary/Recurrent; 50% cell numbers vs DMSO control, Day 2 to Day 9; read-out: IC50 Cell Survival. As for the experimental part: as §1
Assay [7] deals with patient-derived GBM cell line 301. Put plainly: Gliomasphere Cell Number Assay. The assay is classed as cell-based. To be noted: cell line 301, Primary, MGMT status −; 50% cell numbers vs DMSO control, Day 2 to Day 9; read-out: IC50 Cell Survival. As to the method: as §1
In assay [8] the test system is patient-derived GBM cell line 336. Kind of assay: Gliomasphere Cell Number Assay. The class given is cell-based. To be noted: cell line 336, Recurrent, MGMT status +; 50% cell numbers vs DMSO control, Day 2 to Day 9; read-out: IC50 Cell Survival. As for the experimental part:
as §1

In assay [9] the test system is patient-derived GBM cell line 390. Kind of assay: Gliomasphere Cell Number Assay. The class given is cell-based. To be noted: cell line 390, Primary, MGMT status −; 50% cell numbers vs DMSO control, Day 2 to Day 9; read-out: IC50 Cell Survival. As for the experimental part:
as §1

For assay [10], the system named is patient-derived GBM cell line 206. Put plainly: Sphere-Reformation Assay. The class given is cell-based. To be noted: 7 day pre-treatment, various doses. As to the method:
(§2) Tumorsphere lines 206, 217, 254 and 282 in FIGS. 1A, 1B, 1C and 1D, respectively, were dissociated and plated as single cells at a density of 50,000 cells/ml of tumorsphere media in a total of 10 mL per T-25 cell culture flask and 5 flasks per cell line. […] 60 wells were plated from each flask of cells. Tumorspheres were allowed to grow until they achieved at least 60 microns in diameter before they were counted. The percentage of tumorsphere formation was calculated as the number of tumorspheres counted divided by the number of cells seeded times the plating efficiency of the control.
(§3) Patient-derived GBM cell lines cultured under tumorsphere culture conditions maintain a highly heterogenous population of cells, including both sphere-initiating cells, as well as more committed progenitor cells with limited proliferative capabilities. To determine if Compound 1 specifically targets the sphere-initiating cell population, we performed a sphere re-formation assay after Compound 1 pre-treatment. […] Compound 1 may target both the sphere-initiating cells as well as the more committed progenitor cells thus the percentage of sphere-initiating cells in the culture remains constant after Compound 1 treatment.

Assay [11] deals with patient-derived GBM cell line 217. Kind of assay: Sphere-Reformation Assay. The assay is classed as cell-based. To be noted: 7 day pre-treatment, various doses. As to the method:
as §2, §3

Assay [12] has as its system patient-derived GBM cell line 254. Put plainly: Sphere-Reformation Assay. The assay is classed as cell-based. As for the experimental part:
as §2, §3

The subject of assay [13] is patient-derived GBM cell line 282. Put plainly: Sphere-Reformation Assay. The class given is cell-based. To be noted: 7 day pre-treatment, various doses (100 nM and 500 nM not tested). As to the method: as §2, §3
Assay [14] concerns patient-derived GBM cell line 206. Put plainly: Combination effect of Compound 1 and TMZ on cell survival (fractional product). The assay is classed as cell-based. To be noted: 168 h, 7 days, read-out: % Actual inh. From the text: (§4) TMZ is an alkylating agent that delivers a methyl group to the purine bases of DNA (O^6-guanine; N^7-guanine and N^3-adenine). The cytotoxic lesion, O^6-methylguanine (O^6-MeG), caused by TMZ can be directly removed by methylguanine methyltransferase (MGMT) via direct repair and can also activate mechanisms of mismatch repair (MMR). Futile cycles of MMR lead to the formation of double-stranded DNA breaks and activation of the DNA-PK mediated mechanisms of double-stranded break repair.
(§5) Tumorspheres grown under tumorsphere culture conditions were harvested, dissociated into single cells, and plated at 5,000 cells/well in 96-well plates. […] When the value of the column % actual inhibition divided by % inhibition calculated based on summation is >1=synergism, ˜1=summation, <1=antagonism.

The test system of assay [15] is patient-derived GBM cell line 217. The description is as above. The class given is cell-based. To be noted: 168 h, Cmpd 1 100 nM alone, 7 days, read-out: % Actual inh.
From the text: as §4, §5

The subject of assay [16] is HF2354 PDX (GBM neurosphere line HF2354). Kind of assay: Patient derived xenograft (PDX) survival study. The class given is in vivo, nude mouse. To be noted: HF2354 PDX in nude mice; 5 mg/kg oral gavage once a day, Monday through Friday; monotherapy. As for the experimental part: FIG. 2: Kaplan-Meier survival analysis for HF2354 PDX line (end of study). Treatment schedule for survival (Rx) and target hit (TH) are indicated.
Immunocompromised mice (nude mouse NCRNU-M, TACONIC) were implanted with a GBM neurosphere line derived from fresh surgical specimens. The cell line was characterized as following:
Patient derived xenograft (PDX) treatments started four weeks prior to when the first animal was expected to become symptomatic. […] Control animals were administered vehicle alone. Target hit cohorts were treated with one dose of each compound and sacrificed 2 and 24 h later (n=3/group). As necessary, fluids and supplemental food were administered to ameliorate weight loss.
Background: A xenograft is tissue or cells of one species grown in another, often human tumour cells in immunodeficient mice.

Structures are written as SMILES.

By IC50 is commonly meant the concentration needed to halve the response being measured.

Take `CCN1C(=O)CNc2ncc(-c3ccc(-c4nc[nH]n4)nc3C)nc21` [Compound 1, 1-ethyl-7-(2-methyl-6-(1H-1,2,4-triazol-3-yl)pyridin-3-yl)-3,4-dihydropyrazino[2,3-b]pyrazin-2(1H)-one]: the IC50 in assay [1] was found to be 0.0468 µM; in assay [2], 0.1 µM; in assay [3], 0.0719 µM; in assay [4], 0.115 µM; in assay [5] it was 0.441 µM; in [6] it was 0.107 µM. Further, the results for the IC50 in [7], in [8] and in [9] were 0.313 µM, 0.231 µM and 0.0659 µM, respectively. Further, the “number of spheres formed by cells that survived pre-treatment vs control untreated cells” value in [10] is listed as “not significantly different”; in assay [11], “not significantly different”; in [12] (7 day pre-treatment, various doses), “not significantly different”; in assay [13] it was “not significantly different”. Besides, the “tumorsphere re-formation after pre-treatment” value in [12] (500 nM, 7 days) is recorded as “No tumorspheres re-formed”. Moreover, the inhibition at 0.05 µM in assay [14] (Cmpd 1 50 nM alone) worked out at 10.6%. Besides, the inhibition at 0.1 µM in [14] (Cmpd 1 100 nM alone) is 23.1%; in assay [15], 51%. Further, the inhibition at 0.5 µM in assay [14] (Cmpd 1 500 nM alone) worked out at 65.8%. The “survival (Kaplan-Meier)” value in assay [16] was “significantly increased survival”.

For the origin of these results see patent US10183019B2, “Treatment of cancer with dihydropyrazino-pyrazines” (Signal Pharmaceuticals, LLC, priority 2013, dated 2019).
